The data set relates to isolated pancreatic islets. The data set can be described thus: Glucose-dependent insulin secretion of isolated islets after in vivo MnCl2:Bicine (radioimmunoassay). On the set-up: species or system mice. The procedure: The chronic exposure to high concentrations of Mn can potentially lead to cytotoxic effects on heart, liver and brain [26]. We hypothesized that the early and late retention of Mn might impair the physiological integrity of the glucose-dependent insulin response of islet cells. To investigate the physiological function of the islets, glucose-dependent insulin secretion was measured in vitro 1 or 24 h after a single systemic in vivo administration of MnCl2:Bicine solution (75 µmol/kg) on a new group of mice (Table. 1, Group 4). Secretion assays were performed on isolated islets, followed by quantification of insulin content using radioimmunoassay. The response to glucose of each individual mouse was assessed by calculating the enhancement of insulin secretion between basal (3 mM) and stimulating glucose concentration (15 mM).
Before the isolation of islets, control and RIP1-Tag2 mice previously anesthetized using 1-2% isoflurane/O2 gas mixture (Vetland, Louisville, KY, USA) and intravenously injected with a bolus of MnCl2:Bicine solution (75 µmol/kg), analogously to the in vivo imaging protocol. […] The content of insulin in the supernatant was determined by radioimmunoassay using as insulin standards Millipore 8013-K (Merck, Darmstadt, DE). […]

Turning to MnCl2:Bicine, the “effect of contrast agent accumulation on glucose-dependent insulin secretion response” value (islets isolated 1 h and 24 h after single i.v. 75 µmol/kg, 8-wk old control and RIP1-Tag2 mice) is “not affected”. For the same substance, the “enhancement of insulin secretion, stimulating (15 mM) vs basal (3 mM) glucose” value (islets of 8-wk old control and RIP1-Tag2 mice isolated 1 or 24 h after single i.v. 75 µmol/kg, radioimmunoassay, n=3/3) is reported as 10-20 times.

Values taken from paper PMC6929626, “PET/MRI enables simultaneous in vivo quantification of β-cell mass and function” (Theranostics, 2020).
